{
  "source": "ChEMBL document CHEMBL1129757",
  "about": "(J Med Chem, 1996)",
  "data": [
    {"target": "T1, Melatonin receptor (Gallus gallus, UniProt P49288+P51050+P49285)", "test": "Binding affinity towards melatonin receptor in chicken brain.", "units": {"Ki": "nM"}, "values": [
      {"smiles": "CC(=O)NCCCc1cccc(Cl)c1", "Ki": 636},
      {"smiles": "CCC(=O)NCCCc1cccc(Br)c1", "Ki": 318},
      {"smiles": "CCC(=O)NCCc1ccc(OC)cc1", "Ki": 19200},
      {"smiles": "COc1cccc(CCCNC(C)=O)c1", "Ki": 63},
      {"smiles": "CCCCC(=O)NCCCc1ccccc1OC", "Ki": "> 100000"},
      {"smiles": "CCCC(=O)NCCCCc1ccc(OC)cc1", "Ki": 822},
      {"smiles": "CCC(=O)NCCc1cccc(OC)c1", "Ki": 62},
      {"smiles": "CCC(=O)NCCc1ccccc1OC", "Ki": 135},
      {"smiles": "CC(=O)NCCCc1cccc(F)c1", "Ki": 1920},
      {"smiles": "CC(=O)NCCCc1cccc(Br)c1", "Ki": 852},
      {"smiles": "CCCCC(=O)NCCCc1cccc(Cl)c1", "Ki": 15100},
      {"smiles": "CCC(=O)NCCCCc1ccccc1OC", "Ki": 339},
      {"smiles": "CCC(=O)NCCCc1ccc(OC)cc1", "Ki": 2900},
      {"smiles": "COc1ccc(CCCNC(C)=O)cc1", "Ki": 14000},
      {"smiles": "CCCC(=O)NCCCc1ccc(OC)cc1", "Ki": 860},
      {"smiles": "COc1ccccc1CCCNC(C)=O", "Ki": 1430},
      {"smiles": "CCCC(=O)NCCc1ccccc1OC", "Ki": 69},
      {"smiles": "CCCC(=O)NCCCc1ccccc1OC", "Ki": 442},
      {"smiles": "CCC(=O)NCCCCc1ccc(OC)cc1", "Ki": 1400},
      {"smiles": "CCC(=O)NCCc1c[nH]c2ccc(OC)cc12", "Ki": 0.19},
      {"smiles": "COc1cccc(CNC(C)=O)c1", "Ki": 57000},
      {"smiles": "CCCC(=O)NCCCc1cccc(Cl)c1", "Ki": 113},
      {"smiles": "COc1ccc(Br)cc1CCN", "Ki": 8},
      {"smiles": "COc1ccc(CCNC(C)=O)cc1OC", "Ki": 870},
      {"smiles": "CCC(=O)NCc1cccc(OC)c1", "Ki": 22000},
      {"smiles": "CCCC(=O)NCCc1ccc(OC)cc1", "Ki": 17900},
      {"smiles": "CCCCC(=O)NCCCCc1ccccc1OC", "Ki": 9190},
      {"smiles": "CCCCC(=O)NCCc1ccccc1OC", "Ki": 16000},
      {"smiles": "CCCC(=O)NCCCc1cccc(Br)c1", "Ki": 354},
      {"smiles": "CCC(=O)NCCCc1ccccc1OC", "Ki": 374},
      {"smiles": "CCCC(=O)NCCc1ccc(OC)c(OC)c1", "Ki": 59},
      {"smiles": "COc1ccc(CCCCNC(C)=O)cc1", "Ki": 7300},
      {"smiles": "CCC(=O)NCCCc1cccc(OC)c1", "Ki": 5.6},
      {"smiles": "CCC(=O)NCCCc1cccc(F)c1", "Ki": 740},
      {"smiles": "CCCCC(=O)NCCCCc1cccc(OC)c1", "Ki": 9670},
      {"smiles": "CCCCC(=O)NCCc1cccc(OC)c1", "Ki": 741},
      {"smiles": "CCCCC(=O)NCCc1ccc(OC)cc1", "Ki": 70800},
      {"smiles": "CCCC(=O)NCCCc1cccc(OC)c1", "Ki": 5.5},
      {"smiles": "CCCCC(=O)NCCCCc1ccc(OC)cc1", "Ki": 7000},
      {"smiles": "CCCC(=O)NCCCCc1ccccc1OC", "Ki": 116},
      {"smiles": "COc1ccc2c(c1)c1c(n2C)CCCC1CNC(C)=O", "note": "(stereo unspecified)", "Ki": 0.97},
      {"smiles": "CCCC(=O)NCCCCc1cccc(OC)c1", "Ki": 208},
      {"smiles": "CCCC(=O)NCc1cccc(OC)c1", "Ki": 13000},
      {"smiles": "CCC(=O)NCCc1ccc(OC)c(OC)c1", "Ki": 130},
      {"smiles": "CCCC(=O)NCCc1cccc(OC)c1", "Ki": 40},
      {"smiles": "CCC(=O)NCCCCc1cccc(OC)c1", "Ki": 119},
      {"smiles": "CCCC(=O)NCCCc1cccc(F)c1", "Ki": 434},
      {"smiles": "COc1ccccc1CCNC(C)=O", "Ki": 573}
    ]},
    {"target": "T1, Melatonin receptor", "test": "Binding affinity towards melatonin receptor in Chicken brain Experiment 1", "units": {"Ki": "nM"}, "values": [
      {"smiles": "COc1cccc(CCNC(C)=O)c1", "Ki": 958},
      {"smiles": "COc1ccc(CCNC(C)=O)cc1", "Ki": "> 100000"}
    ]},
    {"target": "T1, Melatonin receptor", "test": "Binding affinity towards melatonin receptor in Chicken brain Experiment 2", "units": {"Ki": "nM"}, "values": [
      {"smiles": "COc1ccc(CCNC(C)=O)cc1", "Ki": "> 1000"}
    ]}
  ]
}
